Source: patent publication US7285558B2, “Pyrazolo[3,4-d]pyrimidines inhibiting H. pylori infections” (AstraZeneca AB, priority 2001, dated 2007)
Counter-ions that a name gives are not always drawn.

What was measured:
[1] = molecular target: T1, H. pylori MurI (Helicobacter pylori, UniProt Q9ZLT0); assay: Glutamate racemase (MurI) activity assay, coupled to L-glutamate dehydrogenase (LGDH), fluorescence readout; type: biochemical; conditions: 1000 nM H. pylori MurI, 40 μM D-glutamate, room temperature, read-out: LGDH I50
T1 sequence (Q9ZLT0 1-255): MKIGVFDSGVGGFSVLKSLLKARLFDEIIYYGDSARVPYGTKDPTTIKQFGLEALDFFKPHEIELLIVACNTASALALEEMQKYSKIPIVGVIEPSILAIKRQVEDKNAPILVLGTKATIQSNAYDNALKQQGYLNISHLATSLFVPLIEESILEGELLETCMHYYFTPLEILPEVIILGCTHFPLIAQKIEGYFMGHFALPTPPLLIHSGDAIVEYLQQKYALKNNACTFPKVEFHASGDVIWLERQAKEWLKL
Method: Glutamate Racemase Activity Assay:
Glutamate racemase (MurI) activity was assayed by measuring the conversion of glutamate from D to L enantiomer. This reaction was coupled to the reduction of NAD^+ to NADH by L-glutamate dehydrogenase (LGDH). LGDH from bovine liver was obtained as a lyophilized powder (Sigma #G-7882) and dissolved in 10 mM Tris (Sigma #T-6791), pH 7.5, buffer containing 0.1 mM EDTA (Fisher #BP118-500) and 50% glycerol (Sigma #G-9012). The assay mixture consisted of 100 mM Tris-HCl, pH 8.0, 10 mM β-NAD (Sigma #N-7004), 5 mM DTT (Sigma #D-5545), 0.03% PEG (mw 8000, Sigma #P-5413), 0.03 mg/mL BSA (Pierce #23210), 15 U/mL LGDH, D-glutamate (Fluka #49460), and purified MurI. The following MurI concentrations were used: 1000 nM H. pylori MurI, 0.7 nM E. faecalis MurI, or 0.4 nM E. coli MurI. In the case of E. coli MurI 14 μM UDP-MurNAc-Ala was also added. The final concentration of D-glutamate added for H. pylori MurI was 40 μM, and the other orthologs used 1 mM D-glutamate. The assay was performed in 96-well black microtiter plates (Greiner #XN2-9511) with a final assay volume of 100 μL. Compounds were prepared (x) […]
[…] as 20 mM stock solutions in dimethyl sulphoxide (DMSO, Sigma #D-5879) and serial dilutions were prepared from these solutions using DMSO, 2 μL of which were added to the wells. Activity at room temperature was measured by monitoring the increase in fluorescence using a TECAN Ultra platereader with 340 nm excitation and 465 nm emission filters. The compounds provided have measured IC50 of less then 400 μM

SMILES	melting point	IC50 [1]
CCC(C#N)n1c(=O)n(C)c(=O)c2c(-c3ccncc3)n(Cc3cccc4ccccc34)nc21 (racemic) (as salt: trifluoroacetate) [Example 130, ±2-[5-methyl-2-(1-naphthylmethyl)-4,6-dioxo-3-(4-pyridinyl-2,4,5,6-tetrahydro-7H-pyrazolo[3,4-d]pyrimidin-7-yl]butanenitrile]	75 to 77 °C	–
Cn1c(=O)c2c(-c3ccncc3)n(Cc3cccc4ccccc34)nc2n(C[S+]([O-])C(F)(F)F)c1=O (racemic) [Example 125, (±)5-methyl-2-(1-naphthylmethyl)-3-(4-pyridinyl)-7-{[(trifluoromethyl)sulfinyl]methyl}-2H-pyrazolo[3,4-d]pyrimidine-4,6(5H,7H)-dione,7H)-dione]	–	45.7 µM
Cn1c(=O)c2c(-c3ccncc3)n(Cc3cccc4ccccc34)nc2n(C[S+](C)[O-])c1=O (racemic) [Example 127, (±)5-methyl-7-[(methylsulfinyl)methyl]-2-(1-naphthylmethyl)-3-pyridin-4-yl-2H-pyrazolo[3,4-d]pyrimidine-4,6(5H,7H)-dione]	107 to 109 °C	26 µM
CCC(C#N)n1c(=O)n(C)c(=O)c2c(-c3ccncc3)n(Cc3cccc4ccccc34)nc21 (racemic) [Example 130, ±2-[5-methyl-2-(1-naphthylmethyl)-4,6-dioxo-3-(4-pyridinyl-2,4,5,6-tetrahydro-7H-pyrazolo[3,4-d]pyrimidin-7-yl]butanenitrile]	–	9.1 µM
Cn1c(=O)c2c(-c3ccncc3)n(Cc3cccc4ccccc34)nc2n(CS(=O)(=O)C(F)(F)F)c1=O [Example 126, 5-methyl-2-(1-naphthylmethyl)-3-(4-pyridinyl)-7-{[(trifluoromethyl)sulfonyl]methyl}-2H-pyrazolo[3,4-d]pyrimidine-4,6(5H,7H)-dione]	–	18 µM
Cn1c(=O)c2c(-c3ccncc3)n(Cc3cccc4ccccc34)nc2n(C[S+]([O-])c2ccccc2)c1=O (stereo not shown) [Example 128, 5-methyl-2-(1-naphthylmethyl)-7-[(phenylsulfinyl)methyl]-3-pyridin-4-yl-2H-pyrazolo[3,4-d]pyrimidine-4,6(5H,7H)-dione]	130 to 135 °C	–
CC(C)Cn1c(=O)n(C)c(=O)c2c(-c3cccc(-c4nnn[nH]4)c3)n(Cc3cccc4ccccc34)nc21 [Example 129, 7-isobutyl-5-methyl-2-(1-naphthylmethyl)-3-[3-(1H-1,2,3,4-tetraazol-5-yl)phenyl]-2H-pyrazolo[3,4-d]pyrimidine-4,6(5H,7H)-dione]	251 to 254 °C	1.6 µM
CC(C)Cn1c(=O)n(C)c(=O)c2c(-c3ccccc3F)n(Cc3csc4ccccc34)nc21 [Example 131, 2-(1-benzothiophen-3-ylmethyl)-3-(2-fluorophenyl)-7-isobutyl-5-methyl-2H-pyrazolo[3,4-d]pyrimidine-4,6(5H,7H)-dione]	55 to 57 °C	–
